This is an account of results in patent US10093660B2, “Sulfoximine substituted quinazolines for pharmaceutical compositions” (EVOTEC INTERNATIONAL GMBH, priority 2013, dated 2018).

For one test, the target named is MNK1a (Homo sapiens (Human), UniProt Q9BUB5). Description: MNK1 in vitro kinase assay (Assay 3), Z'-LYTE. The test is classed as biochemical. The note with it: for inhibition at 1 µM: compound concentration of 1 μM, read-out: MNK1 % INH.
A further test has as its target MNK2a (Homo sapiens (Human), UniProt Q9HBH9). Description: MNK2a in vitro kinase assay (Assay 2), ADP-Glo. Type of test: biochemical. The note with it: assay 2; read-out: MNK2 IC50. The text has this: B. MNK2a In Vitro Kinase Assay (Assay 2)
A general note: In ADP-Glo the light output rises with the ADP produced.

Molecules are shown by their SMILES.

Sequence of MNK2a (Q9HBH9 whole entry): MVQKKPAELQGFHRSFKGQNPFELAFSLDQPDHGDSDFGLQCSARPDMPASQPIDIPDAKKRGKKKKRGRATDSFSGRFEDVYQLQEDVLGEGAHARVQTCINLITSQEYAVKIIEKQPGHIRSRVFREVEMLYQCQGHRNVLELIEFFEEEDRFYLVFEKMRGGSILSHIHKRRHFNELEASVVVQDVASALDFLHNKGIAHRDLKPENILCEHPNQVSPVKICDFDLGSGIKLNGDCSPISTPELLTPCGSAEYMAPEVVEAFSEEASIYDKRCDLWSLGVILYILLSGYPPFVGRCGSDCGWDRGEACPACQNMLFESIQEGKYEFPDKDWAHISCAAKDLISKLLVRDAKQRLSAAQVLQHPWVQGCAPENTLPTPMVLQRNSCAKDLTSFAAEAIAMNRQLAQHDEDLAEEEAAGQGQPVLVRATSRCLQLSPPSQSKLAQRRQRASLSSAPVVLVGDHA
Sequence of MNK1a (Q9BUB5 other isoform, or with tags, fused parts or gaps): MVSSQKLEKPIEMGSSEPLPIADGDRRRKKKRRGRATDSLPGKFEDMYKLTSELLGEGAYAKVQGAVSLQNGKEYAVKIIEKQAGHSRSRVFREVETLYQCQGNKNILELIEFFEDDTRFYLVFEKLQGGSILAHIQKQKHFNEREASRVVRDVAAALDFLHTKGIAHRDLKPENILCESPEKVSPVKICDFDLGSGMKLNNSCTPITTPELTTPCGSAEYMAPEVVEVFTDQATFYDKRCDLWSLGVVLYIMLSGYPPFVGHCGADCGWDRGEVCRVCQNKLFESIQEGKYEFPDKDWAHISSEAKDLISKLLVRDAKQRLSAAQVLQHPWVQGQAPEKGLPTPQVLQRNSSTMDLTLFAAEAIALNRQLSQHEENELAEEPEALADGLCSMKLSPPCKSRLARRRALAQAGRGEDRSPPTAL

With `CO[C@@H]1CN(CC(F)F)C[C@H]1Oc1cc(F)ccc1Nc1ncnc2cc(N=S(C)(C)=O)cc(C)c12` [Example 5.4], the inhibition at 1 µM on MNK1a is 35%. For the same molecule, the half-maximal inhibitory concentration (IC50) (as a rule, the concentration that gives 50% inhibition) on MNK2a came out at 0.044 µM.

`CO[C@@H]1CN(CC(F)F)C[C@H]1Oc1ncccc1Nc1ncnc2cc(N=S3(=O)CCCC3)cc(C)c12` [Example 5.5]: the inhibition at 1 µM on MNK1a worked out at 85%. Moreover, the IC50 at MNK2a worked out at 0.013 µM.

Consider `CO[C@@H]1CN(C(C)=O)C[C@H]1Oc1cc(F)ccc1Nc1ncnc2cc(N=S(C)(C)=O)cc(C)c12` [Example 6.1], for which the inhibition at 1 µM at MNK1a was found to be 10%. On MNK2a, the IC50 was 0.389 µM.

Take `CO[C@@H]1CN(C(C)=O)C[C@H]1Oc1cc(F)ccc1Nc1ncnc2cc(N=S3(=O)CCCC3)cc(C)c12` [Example 6.2]: the inhibition at 1 µM on MNK1a is 31%. Further, the concentration for half-maximal inhibition (IC50) on MNK2a amounted to 0.185 µM.

Consider `CO[C@@H]1CN(C(C)=O)C[C@H]1Oc1ncccc1Nc1ncnc2cc(N=S(C)(C)=O)cc(C)c12` [Example 6.3], for which, at MNK1a, the inhibition at 1 µM is 9%. Also, the concentration for half-maximal inhibition (IC50) at MNK2a was found to be 0.584 µM.

`CO[C@@H]1CN(S(C)(=O)=O)C[C@H]1Oc1cc(F)ccc1Nc1ncnc2cc(N=S3(=O)CCCC3)cc(C)c12` [Example 6.4]: at MNK1a, the inhibition at 1 µM worked out at 62%. The concentration for half-maximal inhibition (IC50) on MNK2a amounted to 0.02 µM.

In the case of `CO[C@@H]1CN(S(C)(=O)=O)C[C@H]1Oc1ncccc1Nc1ncnc2cc(N=S3(=O)CCCC3)cc(C)c12` [Example 6.5], the inhibition at 1 µM at MNK1a amounted to 60%. On MNK2a, the 50% inhibitory concentration (IC50) was 0.028 µM.

As for `CO[C@@H]1CN(S(C)(=O)=O)C[C@H]1Oc1ncccc1Nc1ncnc2cc(N=S(C)(C)=O)cc(C)c12` [Example 6.6], the IC50 on MNK1a came out at 1.4 µM; on MNK2a, 0.08 µM.

In the case of `CO[C@@H]1CN(S(C)(=O)=O)C[C@H]1Oc1cc(F)ccc1Nc1ncnc2cc(N=S(C)(C)=O)cc(C)c12` [Example 6.7], the inhibition at 1 µM at MNK1a was 35%. The half-inhibitory concentration (IC50) at MNK2a worked out at 0.062 µM.

For `CO[C@@H]1CN(C(C)=O)C[C@H]1Oc1ncccc1Nc1ncnc2cc(N=S3(=O)CCCC3)cc(C)c12` [Example 6.8], the inhibition at 1 µM at MNK1a stood at 41%. Besides, the 50% inhibitory concentration (IC50) on MNK2a is 0.128 µM.

In the case of `CC(=O)O[C@H]1CN(C(C)=O)C[C@@H]1Oc1ncccc1Nc1ncnc2cc(N=S3(=O)CCCC3)cc(C)c12` [Example 6.10], the inhibition at 1 µM at MNK1a turned out to be 38%. In addition, the half-inhibitory concentration (IC50) on MNK2a was 0.378 µM.

For the molecule `COc1cc(N=S2(=O)CCCC2)cc2ncnc(Nc3ccc(Cl)nc3O[C@H]3COC[C@@H]3O)c12` [Example 8.1], the inhibition at 1 µM on MNK1a is 97%. Also, on MNK2a, the half-inhibitory concentration (IC50) amounted to 0.003 µM.

On to `COc1cc(N=S(C)(C)=O)cc2ncnc(Nc3ccc(Cl)nc3O[C@H]3COC[C@@H]3O)c12` [Example 8.2], for which, at MNK1a, the inhibition at 1 µM was found to be 100%. For the same molecule, at MNK2a, the IC50 amounted to 0.003 µM.

For `COc1cc(N=S2(=O)CCCC2)cc2ncnc(Nc3cccnc3O[C@H]3COC[C@@H]3O)c12` [Example 8.3], the inhibition at 1 µM on MNK1a is 97%. In addition, the IC50 at MNK2a is 0.006 µM.

On to `COc1cc(N=S(C)(C)=O)cc2ncnc(Nc3ccc(F)cc3O[C@H]3COC[C@@H]3O)c12` [Example 9.4], for which the inhibition at 1 µM on MNK1a was 102%. Besides, the IC50 on MNK2a turned out to be 0.007 µM.

For the molecule `CCOc1cc(N=S(C)(C)=O)cc2ncnc(Nc3ccc(F)cc3O[C@H]3COC[C@@H]3O)c12` [Example 9.6], at MNK1a, the inhibition at 1 µM came to 94%. Also, the IC50 on MNK2a came out at 0.008 µM.

`CS(C)(=O)=Nc1cc(OCCF)c2c(Nc3ccc(F)cc3O[C@H]3COC[C@@H]3O)ncnc2c1` [Example 9.8]: the inhibition at 1 µM at MNK1a came out at 75%. In addition, at MNK2a, the IC50 was determined as 0.039 µM.

Turning to `COc1cc(N=S(C)(=O)C(C)C)cc2ncnc(Nc3ccc(F)cc3O[C@H]3COC[C@@H]3O)c12` (some centres unmarked) [Example 9.9], the inhibition at 1 µM at MNK1a came out at 94%. For the same molecule, the IC50 on MNK2a was determined as 0.007 µM.

For the molecule `COc1cc(N=S2(=O)CCC2)cc2ncnc(Nc3ccc(F)cc3O[C@H]3COC[C@@H]3O)c12` [Example 9.10], on MNK1a, the IC50 is 0.028 µM and the inhibition at 1 µM is 104%. The concentration for half-maximal inhibition (IC50) on MNK2a worked out at 0.003 µM.

On to `COc1cc(N=S(C)(=O)c2cccnc2)cc2ncnc(Nc3ccc(F)cc3O[C@H]3COC[C@@H]3O)c12` (some centres unmarked) [Example 9.14], for which the inhibition at 1 µM on MNK1a came out at 84%. For the same molecule, the IC50 on MNK2a came to 0.013 µM.
